pIC50, pKi: −log10 of the molar value.
Experiments:
PI3Kα = PI3Kα (Homo sapiens (Human), UniProt P42336); conditions: read-out: PI3Kα AlphaScreen ® Ki
[1] = system: phosphorylation of Akt at Serine 473 in U87 MG cells; assay: cells; conditions: Homo sapiens, U-87 MG, 2 h, read-out: U87Cell IC50, pAkt (Ser 473), U87 MG cells, two hours with compound

Sequence of PI3Kα (P42336 whole entry): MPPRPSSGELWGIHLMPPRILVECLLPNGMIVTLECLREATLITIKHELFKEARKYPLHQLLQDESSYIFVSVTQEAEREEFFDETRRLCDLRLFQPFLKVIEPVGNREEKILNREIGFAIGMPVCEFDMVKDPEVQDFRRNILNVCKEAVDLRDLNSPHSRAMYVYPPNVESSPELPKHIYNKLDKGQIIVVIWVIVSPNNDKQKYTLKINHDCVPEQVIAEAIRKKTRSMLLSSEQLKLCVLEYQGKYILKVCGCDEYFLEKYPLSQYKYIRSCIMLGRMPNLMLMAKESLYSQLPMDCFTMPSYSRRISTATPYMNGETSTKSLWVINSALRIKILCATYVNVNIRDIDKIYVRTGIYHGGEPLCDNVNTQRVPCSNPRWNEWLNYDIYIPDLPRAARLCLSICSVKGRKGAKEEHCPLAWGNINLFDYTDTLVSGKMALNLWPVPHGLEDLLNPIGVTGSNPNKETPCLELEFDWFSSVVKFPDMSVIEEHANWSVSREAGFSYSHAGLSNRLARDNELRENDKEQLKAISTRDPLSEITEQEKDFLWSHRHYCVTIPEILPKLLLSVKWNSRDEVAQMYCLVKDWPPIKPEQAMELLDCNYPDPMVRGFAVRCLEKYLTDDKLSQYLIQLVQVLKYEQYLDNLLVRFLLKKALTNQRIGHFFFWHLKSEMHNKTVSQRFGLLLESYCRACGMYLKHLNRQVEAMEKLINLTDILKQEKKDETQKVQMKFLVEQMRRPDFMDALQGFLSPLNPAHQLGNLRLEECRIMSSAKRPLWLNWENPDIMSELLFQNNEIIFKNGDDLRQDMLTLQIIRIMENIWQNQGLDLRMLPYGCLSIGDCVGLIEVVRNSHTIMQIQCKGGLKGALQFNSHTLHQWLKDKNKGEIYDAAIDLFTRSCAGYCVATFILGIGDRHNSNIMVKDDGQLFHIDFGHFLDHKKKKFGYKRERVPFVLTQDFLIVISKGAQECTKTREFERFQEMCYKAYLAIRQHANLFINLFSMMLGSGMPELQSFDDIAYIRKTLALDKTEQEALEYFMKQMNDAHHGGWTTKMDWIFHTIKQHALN
Sequence of PI3Kα (P27986 whole entry partner): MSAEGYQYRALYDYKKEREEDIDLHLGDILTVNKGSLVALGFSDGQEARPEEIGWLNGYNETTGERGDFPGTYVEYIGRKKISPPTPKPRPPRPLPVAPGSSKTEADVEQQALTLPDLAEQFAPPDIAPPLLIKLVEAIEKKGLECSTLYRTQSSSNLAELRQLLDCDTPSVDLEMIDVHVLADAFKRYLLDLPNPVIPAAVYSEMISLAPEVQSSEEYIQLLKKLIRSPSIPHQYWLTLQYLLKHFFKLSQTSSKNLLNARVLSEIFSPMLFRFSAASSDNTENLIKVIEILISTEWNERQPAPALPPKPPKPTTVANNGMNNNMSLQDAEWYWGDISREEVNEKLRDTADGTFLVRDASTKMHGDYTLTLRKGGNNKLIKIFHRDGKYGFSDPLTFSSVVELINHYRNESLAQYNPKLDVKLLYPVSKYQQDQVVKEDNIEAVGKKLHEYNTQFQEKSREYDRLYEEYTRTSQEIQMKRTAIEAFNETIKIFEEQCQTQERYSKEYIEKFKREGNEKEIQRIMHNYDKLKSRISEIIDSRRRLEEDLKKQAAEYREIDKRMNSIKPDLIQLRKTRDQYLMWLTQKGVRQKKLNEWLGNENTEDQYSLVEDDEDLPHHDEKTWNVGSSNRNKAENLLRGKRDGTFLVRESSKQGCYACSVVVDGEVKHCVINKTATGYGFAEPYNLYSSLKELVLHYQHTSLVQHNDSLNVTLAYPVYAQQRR

pKi (PI3Kα) | pIC50 [1] | Structure (SMILES)
8.70 | 9.00 | COc1ncc(Nc2ncc([C@@H](C)N3CCN(S(C)(=O)=O)CC3)cc2-c2cc(N)nc(C)n2)cc1F [Example 305, 6-(2-((5-fluoro-6-methoxy-3-pyridinyl)amino)-5-((1R)-1-(4-(methylsulfonyl)-1-piperazinyl)ethyl)-3-pyridinyl)-2-methyl-4-pyrimidinamine]
7.92 | 7.43 | COc1ncc(Nc2ncc(C(C)(C)O)cc2-c2nc(C)nc(N)n2)cc1C [Example 354, 2-(5-(4-Amino-6-Methyl-1,3,5-Triazin-2-yl)-6-(6-Methoxy-5-Methylpyridin-3-Ylamino)Pyridin-3-yl)Propan-2-ol]
7.23 | 6.97 | COc1ccc(Nc2ncc(C(N)C(F)(F)F)cc2-c2nc(C)nc(N)n2)cn1 (stereo not shown) [Example 324, 4-(5-(1-Amino-2,2,2-Trifluoroethyl)-2-(6-Methoxypyridin-3-Ylamino)Pyridin-3-yl)-6-Methyl-1,3,5-Triazin-2-Amine]
6.09 | < 5.00 | CCS(=O)(=O)c1cnc(Nc2cnc(OC)c(F)c2)c(-c2nc(C)nc(N)n2)c1 [Example 303, 4-(5-(ethylsulfonyl)-2-(5-fluoro-6-methoxypyridin-3-ylamino)pyridin-3-yl)-6-methyl-1,3,5-triazin-2-amine]
8.30 | 8.40 | Cc1nc(N)nc(-c2cc([C@H](C)N3CCOCC3)cnc2Nc2cnc(Cl)c(NS(C)(=O)=O)c2)n1 (single isomer, unassigned) [Example 372]
7.74 | 7.29 | COc1ncc(Nc2ncc([C@H](C)N3CCN(S(C)(=O)=O)C[C@@H]3C)cc2-c2nc(C)nc3[nH]cnc23)cc1F [Example 296, N-(5-Fluoro-6-Methoxypyridin-3-yl)-5-((S)-1-((S)-2-Methyl-4-(Methylsulfonyl)Piperazin-1-yl)Ethyl)-3-(2-Methyl-9H-Purin-6-yl)Pyridin-2-Amine]
7.51 | 7.20 | COc1ncc(Nc2ncc(C(C)(C)O)nc2-c2cc(N)nc(C)n2)cc1F [Example 284, 2-(6-(6-Amino-2-Methylpyrimidin-4-yl)-5-(5-Fluoro-6-Methoxypyridin-3-Ylamino)Pyrazin-2-yl)Propan-2-ol]
7.23 | 7.80 | C=Cc1cnc(Nc2cnc(Cl)c(NS(C)(=O)=O)c2)c(-c2cc(N)nc(C)n2)c1 [Example 380, N-(5-(3-(6-Amino-2-Methylpyrimidin-4-yl)-5-Vinylpyridin-2-Ylamino)-2-Chloropyridin-3-yl)Methanesulfonamide]
7.82 | 7.51 | Cc1nc(N)nc(-c2cc([C@@H](C)N3CCN(S(C)(=O)=O)C[C@@H]3C)cnc2Nc2ccc(Cl)nc2)n1 [Example 363, 4-(2-(6-Chloropyridin-3-Ylamino)-5-((R)-1-((S)-2-Methyl-4-(Methylsulfonyl)Piperazin-1-yl)Ethyl)Pyridin-3-yl)-6-Methyl-1,3,5-Triazin-2-Amine]

More lines, now with the values behind:

Structure (SMILES) | pKi (PI3Kα) | pIC50 [1]
COc1ccc(Nc2ncc(C(C)N3CCN(S(C)(=O)=O)CC3)cc2-c2nc(C)nc(N)n2)cn1 (stereo not shown) [Example 144, 4-(2-(6-Methoxypyridin-3-Ylamino)-5-(1-(4-(Methylsulfonyl)Piperazin-1-yl)Ethyl)Pyridin-3-yl)-6-Methyl-1,3,5-Triazin-2-Amine] | 8.15 | 7.59
COc1ccc(Nc2ncc(N3CC[C@@H](O)C3)cc2-c2nc(C)nc3[nH]cnc23)cn1 [Example 206, (3R)-1-(6-((6-Methoxy-3-Pyridinyl)Amino)-5-(2-Methyl-9H-Purin-6-yl)-3-Pyridinyl)-3-Pyrrolidinol] | 7.17 | 6.41
COc1ccc(Nc2ncc(CN3CCN(S(C)(=O)=O)CC3)cc2-c2ncnc(C)n2)cn1 [Example 34, N-(6-methoxypyridin-3-yl)-3-(4-methyl-1,3,5-triazin-2-yl)-5-((4-(methylsulfonyl)piperazin-1-yl)methyl)pyridin-2-amine] | 5.80 | < 5.00
COc1ccc(Nc2ncc(NCc3ccccc3)cc2-c2nc(C)nc3[nH]cnc23)cn1 [Example 91, N5-benzyl-N2-(6-methoxypyridin-3-yl)-3-(2-methyl-9H-purin-6-yl)pyridine-2,5-diamine] | 7.24 | 6.42
COc1ccc(Nc2nc(-c3cccnc3)ccc2-c2nc(C)nc(N)n2)cn1 [Example 254, 5-(4-Amino-6-Methyl-1,3,5-Triazin-2-yl)-N-(6-Methoxypyridin-3-yl)-2,3′-Bipyridin-6-Amine] | 7.17 | 6.23
COCCOc1ccc(NC(=O)Nc2ccc(Nc3ncc(Cl)cc3-c3nc(C)nc(N)n3)cn2)cc1 [Example 195, 1-(5-(3-(4-Amino-6-Methyl-1,3,5-Triazin-2-yl)-5-Chloropyridin-2-Ylamino)Pyridin-2-yl)-3-(4-(2-Methoxyethoxy)Phenyl)Urea] | 7.80 | < 5.00
COCCOc1ccc(-c2nc(C)nc(N)n2)c(Nc2cnc(OC)c(F)c2)n1 [Example 259, 4-(2-(5-Fluoro-6-Methoxypyridin-3-Ylamino)-6-(2-Methoxyethoxy)Pyridin-3-yl)-6-Methyl-1,3,5-Triazin-2-Amine] | 7.09 | 6.72
COc1ccc(Nc2ncc(CN3CCOCC3=O)cc2-c2nc(C)nc(N)n2)cn1 [Example 154, 4-((5-(4-Amino-6-Methyl-1,3,5-Triazin-2-yl)-6-((6-Methoxy-3-Pyridinyl)Amino)-3-Pyridinyl)Methyl)-3-Morpholinone] | 7.48 | 7.10
COc1cncc(Nc2ncccc2-c2nc(C)nc3[nH]cnc23)c1 [Example 183, N-(5-Methoxypyridin-3-yl)-3-(2-Methyl-9H-Purin-6-yl)Pyridin-2-Amine] | 7.59 | 6.35
COc1ccc(Nc2nc(N(C)C)ncc2-c2nc(C)nc(N)n2)cn1 [Example 121, 5-(4-amino-6-methyl-1,3,5-triazin-2-yl)-N4-(6-methoxypyridin-3-yl)-N2,N2-dimethylpyrimidine-2,4-diamine] | 7.35 | 6.72
COc1ccc(Nc2ncc(CN3CCn4ncnc4C3)cc2-c2nc(C)nc(N)n2)cn1 [Example 233, 4-(5-((5,6-Dihydro-[1,2,4]Triazolo[1,5-A]Pyrazin-7(8H)-yl)Methyl)-2-(6-Methoxypyridin-3-Ylamino)Pyridin-3-yl)-6-Methyl-1,3,5-Triazin-2-Amine] | 7.39 | 7.24
COCCNc1cnc(Nc2ccc(OC)nc2)c(-c2nc(C)nc3[nH]cnc23)c1 [Example 93, N5-(2-methoxyethyl)-N2-(6-methoxypyridin-3-yl)-3-(2-methyl-9H-purin-6-yl)pyridine-2,5-diamine] | 6.98 | 6.03
COc1ncc(Nc2nc(C)ccc2-c2nc(C)nc(N)n2)cc1F [Example 197, 4-(2-(5-Fluoro-6-Methoxypyridin-3-Ylamino)-6-Methylpyridin-3-yl)-6-Methyl-1,3,5-Triazin-2-Amine] | 7.48 | 6.68
COc1ccc(Nc2ncc(CN3CCOC[C@@H]3C)cc2-c2nc(C)nc(N)n2)cn1 [Example 219, (S)-4-(2-(6-Methoxypyridin-3-Ylamino)-5-((3-Methylmorpholino)Methyl)Pyridin-3-yl)-6-Methyl-1,3,5-Triazin-2-Amine] | 7.03 | 6.53

Reference: patent US8772480B2, “Inhibitors of PI3 kinase and/or mTOR” (priority 2009, dated 2014)
